Data taken from patent US20060211575A1, “CONTROL FOR PLANT AND PLANT PRODUCT PATHOGENS” (W. NEUDORFF GMBH KG, priority 2005, published 2006).

What was measured:
Format in all cases: in vivo
[1] = test system: powdery mildew (Sphaerotheca fuliginea); test: Greenhouse test of betaines for controlling powdery mildew on dandelion
Protocol: The purpose of this test was to evaluate the control of powdery mildew (Sphaerotheca fuliginea) on dandelion (Taraxacum officinale). Compositions of C12 betaine, Coco betaine, C16 betaine, C18:1 betaine, Coco amidopropyl betaine, C18:1 amidopropyl betaine, and Coco sulfo betaine were formed using the commercially available forms of the betaines as disclosed herein. Additionally, a sulfur standard was prepared using a commercially available form of sulfur (Red Ball EM-53) from International Chem. Inc., USA. For each treatment, twelve 20 cm diameter dandelions were used, and at the start of the test, all of the leaves were trimmed off of the plants. The test evaluated disease development on fully formed leaves. Each composition was sprayed to run off the plants, and resprayed 3 times every 7 days. The plants were also reinoculated by placing diseased dandelions amongst the test plants.

[2] = test system: rose blackspot (Diplocarpon rosae); test: Field test of betaines to control blackspot on Altissimo roses; settings: 0.2%
Text: The purpose of this test was to evaluate various betaines for controlling rose blackspot (Diplocarpon rosae) on Altissimo roses under field conditions. Following formation of compositions of cetyl betaine, cocobetaine, and coco amidopropyl betaine using the commercially available forms of the betaines as disclosed herein as well as formation of a standard 0.2% sulfur solution, the compositions/solution were sprayed to run off onto mature Altissimo rose plants. Nine plants were used in each treatment, and the plants were resprayed every 7 to 10 days for over a 100 day period.
Table 1, below, illustrates the results obtained from treatments of cetyl betaine at various concentrations ranging from about 0.020% ai to 0.100% ai, as well as cocobetaine at a 0.05% ai concentration and coco amiodopropyl betaine at a 0.10% ai concentration.

[3] = test system: rust (Cronartium ribicola); test: Field test of betaines to control rust on black currants; settings: 0.10% ai, black currant, resprayed every 7 to 10 days
Text: The purpose of this test was to evaluate 6 betaines for controlling rust (Cronartium ribicola) on black currant. Following formation of compositions of Coco betaine, C16 betaine, C18:1 betaine, Coco amidopropyl betaine, C18:1 amidopropyl betaine, and Coco sulfo betaine having varying betaine concentrations (using the commercially available forms of the betaines as discussed herein and a water solvent), and a copper octanoate standard (formed from a commercially available form entitled “Soap Shield” from Gardens Alive, Ind., USA), the compositions/solution were sprayed to run off onto eight-year-old black currants. Every treatment had nine plants, and the plants were resprayed every 7 to 10 days.

| Compound | Leaf Area Colonized by Powdery Mildew (%) ([1]; 0.2% ai) | Leaflets with Blackspot (%) ([2]; 75 DAT) | Leaflets with Blackspot (%) ([2]; 102 DAT) | Leaf Area Colonized by Powdery Mildew (%) ([1]; 0.1% ai) | Rust Sori Per 9 Plants [3] |
| --- | --- | --- | --- | --- | --- |
| S1SSSSSSS1 [Sulfur] | 0.0% | 0.8% | 1.5% | – | – |
| CCCCCCCC/C=C\CCCCCCCC[N+](C)(C)CC(=O)[O-] [C18:1 betaine, oleyl betaine] | – | – | – | 2.3% | 550 |
| CCCCCCCC/C=C\CCCCCCCC(=O)NCCC[N+](C)(C)CC(=O)[O-] [C18:1 amidopropyl betaine, oleamidopropyl betaine] | – | – | – | 0.9% | 2121 |
| Copper octanoate [reference compound] | – | – | – | – | 135 |
